From US9765075B2, “Substituted bridged urea analogs as sirtuin modulators” (GLAXOSMITHKLINE LLC, priority 2013, dated 2017)
Where two headings read alike, the source gives them in different places.

Biological target: T1, SIRT1 (Homo sapiens, UniProt Q96EB6)
T1 sequence (Q96EB6 1-747): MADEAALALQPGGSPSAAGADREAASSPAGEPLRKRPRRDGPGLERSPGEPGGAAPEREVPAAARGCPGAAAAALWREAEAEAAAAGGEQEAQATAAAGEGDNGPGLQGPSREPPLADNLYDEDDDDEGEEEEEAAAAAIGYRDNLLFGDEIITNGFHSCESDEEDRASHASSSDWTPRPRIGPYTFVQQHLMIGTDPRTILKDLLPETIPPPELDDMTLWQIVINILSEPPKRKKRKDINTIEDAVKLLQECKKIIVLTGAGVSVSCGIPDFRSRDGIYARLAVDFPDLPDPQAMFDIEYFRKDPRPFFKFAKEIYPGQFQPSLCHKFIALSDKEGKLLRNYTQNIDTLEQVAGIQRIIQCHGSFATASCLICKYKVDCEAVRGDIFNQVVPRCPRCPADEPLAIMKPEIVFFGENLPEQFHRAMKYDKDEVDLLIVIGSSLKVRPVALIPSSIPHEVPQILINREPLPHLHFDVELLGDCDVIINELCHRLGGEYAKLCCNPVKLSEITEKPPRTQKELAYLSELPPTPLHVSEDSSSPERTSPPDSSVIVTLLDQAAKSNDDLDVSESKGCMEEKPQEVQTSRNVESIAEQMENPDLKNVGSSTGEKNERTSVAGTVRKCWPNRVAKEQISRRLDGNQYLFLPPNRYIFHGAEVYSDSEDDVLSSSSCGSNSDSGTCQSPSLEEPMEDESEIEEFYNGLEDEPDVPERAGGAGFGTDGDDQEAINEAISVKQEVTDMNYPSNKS
Assay: Trp mass spectrometry assay (SIRT1 activation)
Assay type: biochemical
Conditions: for Emax: percent maximum fold activation of SIRT1, read-out: Tryp % Fold Act
Method in brief: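 Activation is expressed as EC1.5, the concentration raising activity 50% above DMSO control, and as maximum percent of control. Mass-spec readout was OAADPR or deacetylated Trp peptide after a formic-acid-quenched 25-min, 25 °C reaction: 10 nM bacterially expressed His-SIRT1, 0.5 μM acetyl-p53-derived peptide, 120 μM NAD+, pH 7.5 HEPES with […].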

[1] = Trp mass spectrometry assay, EC1.5 = concentration giving 150% activation of SIRT1
[2] = concentration of test compound that results in 150% activation of SIRT1, Trp peptide substrate
[3] = Trp mass spectrometry assay, EC1.5 = concentration of test compound that results in 150% activation of SIRT1

Compound | Tryp AVG EC1.5 (μM) [1] | Emax (Trp mass spectrometry assay) | Tryp AVG EC1.5 (μM) [2] | Emax (Trp peptide substrate) | Tryp AVG EC1.5 (μM) [3]
Cc1c(-c2ccc3c(n2)N(C(=O)Nc2ccccn2)[C@H]2CCN3C2)cnn1C [Example 531] |  |  | B (EC1.5 1-25 μM) | ≥ 150% | 
O=C(Nc1cncc(F)c1)N1c2nc(-c3cccnc3)ccc2N2CCC[C@H]1C2 [Example 453] |  |  | B (EC1.5 1-25 μM) | ≥ 150% | 
O=C(Nc1cccnc1)N1c2nc(-c3cccc(N4CCOCC4)c3)ccc2N2CCC[C@H]1C2 [Example 538] |  |  | A (EC1.5<1 μM) | ≥ 150% | 
COc1cnc(NC(=O)N2c3nc(-c4cccc(Cl)c4)ccc3N3CC[C@H]2C3)cn1 [Example 124] |  | ≥ 150% |  |  | B (EC1.5 1-25 μM)
N#Cc1cccc(-c2ccc3c(n2)N(C(=O)Nc2cccc(-c4cnco4)c2)[C@H]2CCN3C2)c1 [Example 178] |  | ≥ 150% |  |  | A (EC1.5<1 μM)
O=C(Nc1cccnc1)N1c2nc(-c3cccc(C(F)(F)F)c3)ccc2N2CC[C@H]1C2 [Example 17] |  | ≥ 150% |  |  | 
O=C(Nc1cncc(F)c1)N1c2nc(-c3ccnc(N4CC[C@@H](F)C4)c3)ccc2N2CC[C@H]1C2 [Example 464] |  |  | B (EC1.5 1-25 μM) | ≥ 150% | 
Cc1csc(NC(=O)N2c3nc(N4CCCC(C(F)(F)F)C4)ccc3N3CC[C@H]2C3)n1 (stereo partly drawn) [Example 214] |  | ≥ 150% |  |  | A (EC1.5<1 μM)
O=C(Nc1cccnc1)N1c2nc(-c3cncc(Cl)c3)ccc2N2CCC1CC2 [Example 544] |  |  | B (EC1.5 1-25 μM) | ≥ 150% | 
N#Cc1cccc(-c2ccc3c(n2)N(C(=O)Nc2cnccn2)[C@H]2CCN3C2)c1 [Example 189] |  | ≥ 150% |  |  | A (EC1.5<1 μM)
O=C(Nc1cncc(F)c1)N1c2nc(-c3cccc(OC(F)(F)F)c3)ccc2N2CC[C@H]1C2 [Example 174] |  | ≥ 150% |  |  | A (EC1.5<1 μM)

Next, values leading:

Tryp AVG EC1.5 (μM) [1] | Emax (Trp mass spectrometry assay) | Tryp AVG EC1.5 (μM) [2] | Emax (Trp peptide substrate) | Tryp AVG EC1.5 (μM) [3] | Compound
A (EC1.5<1 μM) | ≥ 150% |  |  |  | CC(C)(C)OC(=O)NCc1cnnn1-c1cccc(NC(=O)N2c3nc(-c4cccc(C(F)(F)F)c4)ccc3N3CC[C@H]2C3)c1 [Example 638]
A (EC1.5<1 μM) | ≥ 150% |  |  |  | O=C(Nc1cccc(-c2cnco2)n1)N1c2nc(-c3cccc(Cl)c3)ccc2N2C[C@@H](O)[C@H]1C2 [Example 693]
 |  | B (EC1.5 1-25 μM) | ≥ 150% |  | CC1(CCC(=O)NCc2ccc(NC(=O)N3c4nc(-c5cccc(C(F)(F)F)c5)ccc4N4CC[C@H]3C4)cc2)N=N1 [Example 548]
 |  | B (EC1.5 1-25 μM) | ≥ 150% |  | CC(=O)O[C@@H]1CN2C[C@H]1N(C(=O)Nc1ccccn1)c1nc(-c3cccc(C(F)(F)F)c3)ccc12 [Example 602]
A (EC1.5<1 μM) | ≥ 150% |  |  |  | [N-]=[N+]=NCC(=O)NCc1ccc(NC(=O)N2c3nc(-c4cccc(C(F)(F)F)c4)ccc3N3CC[C@H]2C3)cc1 [Example 799]
 |  | B (EC1.5 1-25 μM) | ≥ 150% |  | N#Cc1cncc(-c2ccc3c(n2)N(C(=O)Nc2ccncn2)[C@H]2CCCN3C2)c1 [Example 558]
C (EC1.5>25 μM) | < 150% |  |  |  | CC(=O)O[C@H]1CN2C[C@H]1N(C(=O)Nc1ccccn1)c1nc(-c3cccc(C(F)(F)F)c3)ccc12 [Example 634]
A (EC1.5<1 μM) | ≥ 150% |  |  |  | CC(C)(C)OC(=O)NCCCc1ccc(NC(=O)N2c3nc(-c4cccc(C(F)(F)F)c4)ccc3N3CCC[C@H]2C3)cc1-c1cnco1 [Example 752]
A (EC1.5<1 μM) | ≥ 150% |  |  |  | O=C(Nc1ccccn1)N1c2nc(-c3cncc(C(F)(F)F)c3)ccc2N2C[C@@H](O)[C@H]1C2 [Example 694]
 |  | A (EC1.5<1 μM) | ≥ 150% |  | CC(C)(C)OC(=O)NCCn1cc(-c2cccc(NC(=O)N3c4nc(-c5cccc(C(F)(F)F)c5)ccc4N4CCC[C@H]3C4)c2)nn1 [Example 604]
 |  | A (EC1.5<1 μM) | ≥ 150% |  | O=C(Nc1cccc(-c2cnco2)n1)N1c2nc(-c3cccc(C(F)(F)F)c3)ccc2N2CC[C@H]1C2 [Example 588]
 |  | B (EC1.5 1-25 μM) | ≥ 150% |  | O=C(Nc1cnccn1)N1c2nc(-c3cccc(N4CCOCC4)c3)ccc2N2CCC[C@H]1C2 [Example 560]
